Measurements as given in US6395896B2, “Pyridazine derivatives, manufacturing method and related composition” (Shiseido Co., Ltd., priority 1999, dated 2002).

Columns and labels:
[1] = Pigment stabilization effect (sequestering agent combination); design: key to Sunlight exposure (80 MJ) Appearance: A: No change; B: No almost change; C: Yes change; key to Sunlight exposure (80 MJ) ΔE: color difference ΔE in Lab space vs. color before sunlight exposure; settings: for Sunlight exposure (80 MJ) Appearance / Sunlight exposure (80 MJ) ΔE: amounts wt %
Procedure: First of all, the photostabilization effect and appearance changes of a composition for each pigment were studied by the following evaluation formulation.
Each test sample was prepared. Observation of appearance changes (visual evaluation) and measurement of color difference (ΔE) were carried out for samples exposed to sunlight (around 80 MJ).
Color difference was measured by Lab coordinate system with spectrophotometer. Color difference was calculated based on the color before sunlight exposure. Namely, from the measured value (L1,a1,b1) before sunlight exposure, color difference (ΔE) was calculated by following formula.

skin (antebrachium) = test: Skin irritation test: occlusive patch test; format: in vivo, human; settings: 10 wt % ultraviolet absorbent, occlusive patch 24 hours
Procedure: Sample (10 wt % of ultraviolet absorbent) is the same as test example 2. An occlusive patch test was carried out in the antebrachium part of healthy men and women subjects by finchamber for 24 hours. Each group was twenty subjects. [table] Each of the calculated average scores was evaluated by the following evaluation standard. A: average score is 0. B: average score is over 0 and less than 1. C: average score is 1 or more and less than 2. D: average score is 2 or more.

[2] = Drug stabilization effect (sequestering agent combination); design: key to Sunlight exposure (80 MJ) Appearance: A: No change; B: No almost change; C: Yes change; settings: for Sunlight exposure (80 MJ) Appearance / Sunlight exposure (80 MJ) Residual yield [%]: amounts wt %
Procedure: Next, when combined with a sequestering agent, the photostabilization effect and appearance change of a composition for each drug was studied by the following evaluation formulation.
Each test sample was prepared. Appearance change of the samples exposed to sunlight (around 80 MJ) was observed (visual evaluation). Also, residual yield of a drug was measured by liquid chromatography.

[3] = colorant Yellow No. 203 0.001, photostabilizer 0.01 + Trisodium hydroxyethyl ethylenediamine triacetate 0.02
[4] = colorant Yellow No. 203 0.001, photostabilizer 0.01, no sequestering agent
[5] = colorants Red No. 106 0.00001 + Yellow No. 5 0.0001, photostabilizer 0.02 + Trisodium ethylenediamine tetraacetate 0.02
[6] = colorants Red No. 106 0.00001 + Yellow No. 5 0.0001, photostabilizer 0.02, no sequestering agent
[7] = colorants Red No. 106 0.00001 + Yellow No. 203 0.0001, photostabilizer 0.02 + Trisodium hydroxyethyl ethylenediamine triacetate 0.02
[8] = colorants Red No. 106 0.00001 + Yellow No. 203 0.0001, photostabilizer 0.02, no sequestering agent
[9] = colorants Red No. 213 0.00001 + Blue No. 1 0.00001, photostabilizer 0.02 + Trisodium hydroxyethyl ethylenediamine triacetate 0.03
[10] = colorants Red No. 213 0.00001 + Blue No. 1 0.00001, photostabilizer 0.02, no sequestering agent
[11] = colorants Red No. 227 0.0001 + Yellow No. 5 0.0001, photostabilizer 0.02 + Trisodium ethylenediamine tetraacetate 0.02
[12] = colorants Red No. 227 0.0001 + Yellow No. 5 0.0001, photostabilizer 0.02, no sequestering agent
[13] = colorants Red No. 227 0.0001 + Yellow No. 203 0.0001, photostabilizer 0.05 + Sodium metaphosphate 0.02
[14] = colorants Red No. 227 0.0001 + Yellow No. 203 0.0001, photostabilizer 0.05, no sequestering agent
[15] = colorants Red No. 401 0.0001 + Blue No. 1 0.00001, photostabilizer 0.02 + Trisodium ethylenediamine tetraacetate 0.03
[16] = colorants Red No. 401 0.0001 + Blue No. 1 0.00001, photostabilizer 0.02, no sequestering agent
[17] = colorants Red No. 401 0.0001 + Green No. 3 0.00001, photostabilizer 0.02 + Sodium metaphosphate 0.03
[18] = colorants Red No. 401 0.0001 + Green No. 3 0.00001, photostabilizer 0.02, no sequestering agent
[19] = colorants Yellow No. 203 0.0001 + Yellow No. 5 0.0001, photostabilizer 0.02 + Sodium metaphosphate 0.01
[20] = colorants Yellow No. 203 0.0001 + Yellow No. 5 0.0001, photostabilizer 0.02, no sequestering agent
[21] = drug 2-o-α-α-glucopyranosyl-L-ascorbic acid 2.0, photostabilizer 0.03 + Sodium metaphosphate 0.03
[22] = drug 2-o-α-α-glucopyranosyl-L-ascorbic acid 2.0, photostabilizer 0.03, no sequestering agent
[23] = drug Dibutylhydroxytoluene 0.01, photostabilizer 0.03 + Sodium metaphosphate 0.03
[24] = drug Dibutylhydroxytoluene 0.01, photostabilizer 0.03, no sequestering agent
[25] = drug Dipotassium glycyrrhizinate 0.05, photostabilizer 0.03 + Sodium metaphosphate 0.03
[26] = drug Dipotassium glycyrrhizinate 0.05, photostabilizer 0.03, no sequestering agent
[27] = drug L-ascorbic acid 2-(dl-α-tocopheryl hydrogen phosphate) potassium salt 0.01, photostabilizer 0.03 + Trisodium hydroxyethyl ethylenediamine triacetate 0.03
[28] = drug L-ascorbic acid 2-(dl-α-tocopheryl hydrogen phosphate) potassium salt 0.01, photostabilizer 0.03, no sequestering agent
[29] = drug Salicylic acid 0.1, photostabilizer 0.03 + Trisodium ethylenediamine tetraacetate 0.03
[30] = drug Salicylic acid 0.1, photostabilizer 0.03, no sequestering agent

**Q.** Which results are given for `Oc1nncc(N2CCOCC2)c1N1CCOCC1` [4,5-Dimorpholino-3-hydroxypyridazine]?
**A.** Sunlight exposure (80 MJ) Appearance [1, 3]: A; Sunlight exposure (80 MJ) ΔE [1, 3]: 0.25; Sunlight exposure (80 MJ) Appearance [1, 4]: B; Sunlight exposure (80 MJ) ΔE [1, 4]: 0.95; Sunlight exposure (80 MJ) Appearance [1, 5]: A; Sunlight exposure (80 MJ) ΔE [1, 5]: 0.98; Sunlight exposure (80 MJ) Appearance [1, 6]: B; Sunlight exposure (80 MJ) ΔE [1, 6]: 1.33; Sunlight exposure (80 MJ) Appearance [1, 7]: A; Sunlight exposure (80 MJ) ΔE [1, 7]: 0.75; Sunlight exposure (80 MJ) Appearance [1, 8]: A; Sunlight exposure (80 MJ) ΔE [1, 8]: 1.10; Sunlight exposure (80 MJ) Appearance [1, 9]: A; Sunlight exposure (80 MJ) ΔE [1, 9]: 1.22; Sunlight exposure (80 MJ) Appearance [1, 10]: B; Sunlight exposure (80 MJ) ΔE [1, 10]: 1.88; Sunlight exposure (80 MJ) Appearance [1, 11]: A; Sunlight exposure (80 MJ) ΔE [1, 11]: 0.71; Sunlight exposure (80 MJ) Appearance [1, 12]: B; Sunlight exposure (80 MJ) ΔE [1, 12]: 1.02; Sunlight exposure (80 MJ) Appearance [1, 13]: A; Sunlight exposure (80 MJ) ΔE [1, 13]: 1.01; Sunlight exposure (80 MJ) Appearance [1, 14]: A; Sunlight exposure (80 MJ) ΔE [1, 14]: 1.55; Sunlight exposure (80 MJ) Appearance [1, 15]: A; Sunlight exposure (80 MJ) ΔE [1, 15]: 0.88; Sunlight exposure (80 MJ) Appearance [1, 16]: A; Sunlight exposure (80 MJ) ΔE [1, 16]: 1.36; Sunlight exposure (80 MJ) Appearance [1, 17]: A; Sunlight exposure (80 MJ) ΔE [1, 17]: 0.73; Sunlight exposure (80 MJ) Appearance [1, 18]: B; Sunlight exposure (80 MJ) ΔE [1, 18]: 1.45; Sunlight exposure (80 MJ) Appearance [1, 19]: A; Sunlight exposure (80 MJ) ΔE [1, 19]: 0.48; Sunlight exposure (80 MJ) Appearance [1, 20]: A; Sunlight exposure (80 MJ) ΔE [1, 20]: 0.78; color difference ΔE ([1]; with a sequestering agent, compared with compositions not having a sequestering agent, Tables 24 to 26): very small; change of appearance of the composition ([1]; with a sequestering agent, Tables 24 to 26): small; Judgment (patch test, average skin reaction score) (skin (antebrachium); Cream): A (average score is 0.); Judgment (patch test, average skin reaction score) (skin (antebrachium); Lotion): A (average score is 0.); Sunlight exposure (80 MJ) Appearance [2, 21]: A; Sunlight exposure (80 MJ) Residual yield [%] [2, 21]: 99.3%; Sunlight exposure (80 MJ) Appearance [2, 22]: A; Sunlight exposure (80 MJ) Residual yield [%] [2, 22]: 98.3%; Sunlight exposure (80 MJ) Appearance [2, 23]: A; Sunlight exposure (80 MJ) Residual yield [%] [2, 23]: 98.8%; Sunlight exposure (80 MJ) Appearance [2, 24]: B; Sunlight exposure (80 MJ) Residual yield [%] [2, 24]: 95.8%; Sunlight exposure (80 MJ) Appearance [2, 25]: A; Sunlight exposure (80 MJ) Residual yield [%] [2, 25]: 100.0%; Sunlight exposure (80 MJ) Appearance [2, 26]: A; Sunlight exposure (80 MJ) Residual yield [%] [2, 26]: 97.2%; Sunlight exposure (80 MJ) Appearance [2, 27]: A; Sunlight exposure (80 MJ) Residual yield [%] [2, 27]: 99.4%; Sunlight exposure (80 MJ) Appearance [2, 28]: B; Sunlight exposure (80 MJ) Residual yield [%] [2, 28]: 98.5%; Sunlight exposure (80 MJ) Appearance [2, 29]: A; Sunlight exposure (80 MJ) Residual yield [%] [2, 29]: 100.1%; Sunlight exposure (80 MJ) Appearance [2, 30]: B; Sunlight exposure (80 MJ) Residual yield [%] [2, 30]: 99.2%; residual yield of a drug ([2]; with a sequestering agent, compared with compositions without, Table 30): very small
